In PubChem BioAssay AID248 (DTP/NCI, 2004):
Toxic doses and inconclusive results are not listed. Rule as the data show it: active = T/C of 150% or more; inactive = T/C below 125%.

Tested on: L1210 leukemia ip in BDF1 mice, survival T/C
Test: NCI In Vivo Anticancer Drug Screen. Data for tumor model L1210 Leukemia (intraperitoneal) in B6D2F1 (BDF1) mice
Settings: endpoint: mean survival time, higher = longer survival
Method in brief: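 Transplanted-tumor mice were given test agent; controls received vehicle only. Survival readings from the two groups were divided (treated over control).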

[1] = dose: 50.0 mg/kg/injection, schedule: Q01DX009 (ip), vehicle: Klucel (hydroxypropylcellulose) (HPC)
[2] = dose: 100.0 mg/kg/injection, schedule: Q01DX009 (ip), vehicle: Klucel (hydroxypropylcellulose) (HPC)
[3] = dose: 100.0 mg/kg/injection, schedule: Q04DX003 (ip), vehicle: Klucel (hydroxypropylcellulose) (HPC)
[4] = dose: 200.0 mg/kg/injection, schedule: Q01DX009 (ip), vehicle: Klucel (hydroxypropylcellulose) (HPC)
[5] = dose: 200.0 mg/kg/injection, schedule: Q04DX003 (ip), vehicle: Klucel (hydroxypropylcellulose) (HPC)
[6] = dose: 400.0 mg/kg/injection, schedule: Q04DX003 (ip), vehicle: Klucel (hydroxypropylcellulose) (HPC)
[7] = dose: 100.0 mg/kg/injection, schedule: Q04DX002 (ip), vehicle: saline
[8] = dose: 200.0 mg/kg/injection, schedule: Q04DX002 (ip), vehicle: saline
[9] = dose: 400.0 mg/kg/injection, schedule: Q04DX002 (ip), vehicle: saline
[10] = dose: 100.0 mg/kg/injection, schedule: Q01DX001 (ip), vehicle: saline
[11] = dose: 200.0 mg/kg/injection, schedule: Q01DX001 (ip), vehicle: saline
[12] = dose: 400.0 mg/kg/injection, schedule: Q01DX001 (ip), vehicle: saline

Measured: T/C

CCCC(=O)NC1CCC(CC2CCCCC2)CC1 (stereo not given)
inactive: dose: 50.0 mg/kg/injection, schedule: Q01DX009 (ip), vehicle: other 92 % of control | dose: 100.0 mg/kg/injection, schedule: Q01DX009 (ip), vehicle: other 106 % of control | dose: 100.0 mg/kg/injection, schedule: Q04DX003 (ip), vehicle: other 100 % of control | dose: 200.0 mg/kg/injection, schedule: Q01DX009 (ip), vehicle: other 98 % of control | dose: 200.0 mg/kg/injection, schedule: Q04DX003 (ip), vehicle: other 100 % of control

CC1(C)N=C(N)N=C(N)N1c1cccc(OCCCOc2ccc(N)cc2)c1
inactive: dose: 5.0 mg/kg/injection, schedule: Q01DX001 (ip), vehicle: saline 97 % of control | dose: 10.0 mg/kg/injection, schedule: Q01DX001 (ip), vehicle: saline 100 % of control | dose: 20.0 mg/kg/injection, schedule: Q01DX001 (ip), vehicle: saline 101 % of control | dose: 40.0 mg/kg/injection, schedule: Q01DX001 (ip), vehicle: saline 100 % of control

CC(C)(C)CCCC1C(=O)N(c2ccccc2)N(c2ccccc2)C1=O
inactive: [1] 110 % of control | [2] 110 % of control | [3] 106 % of control | [4] 112 % of control | [5] 96 % of control | [6] 101 % of control

O=c1oc2ccccc2c(O)c1C(c1ccc(C(c2c(O)c3ccccc3oc2=O)c2c(O)c3ccccc3oc2=O)cc1)c1c(O)c2ccccc2oc1=O
inactive: [3] 105 % of control | [5] 99 % of control | [6] 93 % of control

NC(=O)C1CCC(=O)N1 (stereo not given)
inactive: dose: 100.0 mg/kg/injection, schedule: Q01DX009 (ip), vehicle: saline 93 % of control | [7] 104 % of control | dose: 200.0 mg/kg/injection, schedule: Q01DX009 (ip), vehicle: saline 101 % of control | [8] 98 % of control | dose: 400.0 mg/kg/injection, schedule: Q01DX009 (ip), vehicle: saline 93 % of control | [9] 91 % of control

CC1CCCN(C(=O)CCCCl)C1 (stereo not given)
inactive: [7] 96 % of control | [8] 99 % of control | [9] 99 % of control

CC(C)(C)C1COP(=O)(C(C)(C)C)OC1 (stereo not given)
inactive: dose: 12.5 mg/kg/injection, schedule: Q04DX003 (ip), vehicle: Klucel (hydroxypropylcellulose) (HPC) 94 % of control | dose: 25.0 mg/kg/injection, schedule: Q04DX003 (ip), vehicle: Klucel (hydroxypropylcellulose) (HPC) 96 % of control

COc1cc(/C=N/NC(=O)Cc2cccc3ccccc23)ccc1O
inactive: [2] 109 % of control | dose: 100.0 mg/kg/injection, schedule: Q04DX002 (ip), vehicle: Klucel (hydroxypropylcellulose) (HPC) 107 % of control | [4] 93 % of control | dose: 200.0 mg/kg/injection, schedule: Q04DX002 (ip), vehicle: Klucel (hydroxypropylcellulose) (HPC) 104 % of control | dose: 400.0 mg/kg/injection, schedule: Q01DX009 (ip), vehicle: Klucel (hydroxypropylcellulose) (HPC) 98 % of control | dose: 400.0 mg/kg/injection, schedule: Q04DX002 (ip), vehicle: Klucel (hydroxypropylcellulose) (HPC) 96 % of control

CCCNC(C)(C)C(SSS)c1cccs1 (stereo not given)
inactive: dose: 100.0 mg/kg/injection, schedule: Q04DX003 (ip), vehicle: alcohol 102 % of control | dose: 200.0 mg/kg/injection, schedule: Q04DX003 (ip), vehicle: alcohol 101 % of control

O=C1O/C(=C\c2ccccc2)c2ccccc21
inactive: [10] 101 % of control | dose: 100.0 mg/kg/injection, schedule: Q01DX009 (ip), vehicle: saline with Tween-80 94 % of control | [11] 94 % of control | dose: 200.0 mg/kg/injection, schedule: Q01DX009 (ip), vehicle: saline with Tween-80 97 % of control | [12] 99 % of control | dose: 400.0 mg/kg/injection, schedule: Q01DX009 (ip), vehicle: saline with Tween-80 94 % of control

CC(=O)OC(c1ccnc2ccccc12)C1CC2CCN1CC2 (stereo not given)
inactive: dose: 50.0 mg/kg/injection, schedule: Q01DX001 (ip), vehicle: carboxymethylcellulose (CMC) 97 % of control | dose: 100.0 mg/kg/injection, schedule: Q01DX001 (ip), vehicle: carboxymethylcellulose (CMC) 97 % of control | dose: 200.0 mg/kg/injection, schedule: Q01DX001 (ip), vehicle: carboxymethylcellulose (CMC) 95 % of control

O=C(Nc1cc([N+](=O)[O-])ccc1S(=O)(=O)c1ccc([N+](=O)[O-])cc1NC(=O)c1ccccc1)c1ccccc1
inactive: dose: 75.0 mg/kg/injection, schedule: Q04DX003 (ip), vehicle: saline 92 % of control | [10] 93 % of control | dose: 150.0 mg/kg/injection, schedule: Q04DX003 (ip), vehicle: saline 124 % of control | [11] 94 % of control | dose: 300.0 mg/kg/injection, schedule: Q04DX003 (ip), vehicle: saline 92 % of control | [12] 94 % of control

N#CC1(Cc2ccccc2)c2ccccc2-c2ccccc21
inactive: [3] 98 % of control | [5] 89 % of control | [6] 91 % of control

N#CC(C(=O)c1ccccc1)(C(=O)c1ccccc1)c1cccc2ccccc12
inactive: [1] 89 % of control | [2] 95 % of control | [3] 90 % of control | [4] 92 % of control | [5] 96 % of control | [6] 95 % of control

CCCCOC(=O)C1(C)OC1c1ccccc1 (stereo not given)
inactive: [7] 101 % of control | [8] 89 % of control | [9] 101 % of control

Cc1ccc(C)c(NS(=O)(=O)c2cc(Cl)c(Cl)cc2Cl)c1
inactive: [2] 98 % of control | [4] 96 % of control

N#CCC[P+](CCC#N)(CCC#N)CCCC[P+](CCC#N)(CCC#N)CCC#N
inactive: dose: 100.0 mg/kg/injection, schedule: Q04DX003 (ip), vehicle: saline with Tween-80 94 % of control | dose: 200.0 mg/kg/injection, schedule: Q04DX003 (ip), vehicle: saline with Tween-80 91 % of control | dose: 400.0 mg/kg/injection, schedule: Q04DX003 (ip), vehicle: saline with Tween-80 94 % of control

CC(=O)Oc1ccc(N(CCCl)CCCl)cc1OC(C)=O
inactive: dose: 150.0 mg/kg/injection, schedule: Q01DX001 (ip), vehicle: other 98 % of control
